Patent US11059855B2, “Antimicrobial peptides and methods of making and using same” (priority 2017, dated 2021)

Assays:
[1] = provided by the distributor, GenScript; cited from earlier work
[2] = tested on: P. aeruginosa; experiment: Bacterial minimum inhibitory concentration (MIC), P. aeruginosa; format: cell-based, Pseudomonas aeruginosa; conditions: 75 μM maximum tested; NDA = not determinable
Description: (§1) Escherichia colt strain ATCC 25922, Staphylococcus aureus strain ATCC 25923, and Pseudomonas aeruginosa strain ATCC PAO1 were used in this study. Overnight cultures were subcultured to log phase (OD600=0.3-0.6) after which cell counts were determined by measuring the OD600 (OD600 1.0=1.5×10^8 CFU/mL for S. aureus, 5×10^8 CFU/mL for E. colt, and 2.04×10^8 CFU/mL for P. aeruginosa). Bacteria in minimal media mere added to serially diluted peptides and incubated for 3 hr, followed by the addition of full growth media. After overnight incubation, the optical density of the wells was recorded on a plate reader to determine whether they were sterilized (OD<0.08) or were at stationary phase growth (OD600>0.5). Intermediate values, which were rare, were considered positive for growth. Average minimum sterilizing concentrations were calculated from the lowest peptide concentration that sterilized the bacteria in each serial dilution. The samples were done in sextuplet.

[3] = Pore-size characterization by 3-kDa dextran release; format: biochemical; conditions: ‡Large pore for PG only
From the text: Eight LDKA peptides with different lipid selectivity and pore sizes were selected from the high-throughput screen and sequenced. […] The most common mutation is L to A, occurred 13 times and in 7 out of the 8 peptides, followed by A to L, which occurred 6 times in 5 peptides, L to D which occurred 3 times in 3 peptides, and L to P that occurred once. Lysine (K) is not favorable to be shown at the position 6, 8, 10, 12, and 13, which is the non-polar face of the helical structure. […] More specifically, the analogs only induce leakage from anionic POPG vesicles have 4-5 leucines, which is less than the analogs that can porate both POPC and POPG vesicles and have 6-7 leucines in their sequences.

[4] = Membrane selectivity from high-throughput dye leakage screen; format: biochemical; conditions: PC = POPC, PG = POPG
From the text: (§2) This detects and quantifies the release of a small fluorescent dye (ANTS/DPX; MW=˜400 Da) encapsulated in LUVs after addition of library peptides. Neutral POPC LUVs serve as a simple model for mammalian membranes, while charged POPG LUVs mimic bacterial membranes enriched in anionic lipids.

[5] = Circular dichroism secondary structure (Dichroweb), with POPC; format: physicochemical
Description: (§3) Dichroweb software analyzes the secondary structure of LDKA peptides from circular dichroism spectroscope. The table presents the percentage of each helix and strand structure at different temperature. The data are analyzed using CONTIN-LL method and Reference Set 4 (Optimised for 190-240 nm).
(§4) Peptide solutions (peptide concentration is 50 μM) were titrated with POPC and POPG LUVs (50, 100, 250, 500, 1000 μM) and the corresponding changes CD spectra collected. Analysis of these spectra using CD tools and Dichroweb provides an ensemble average of the changes in secondary structure in the presence of POPC and POPG LUVs (dichroweb.cryst.bbk.ac.uk), which gives a direct measure of the binding free energies for each peptide.

[6] = tested on: S. aureus; experiment: Bacterial minimum inhibitory concentration (MIC), S. aureus; format: cell-based, Staphylococcus aureus; conditions: 75 μM maximum tested; NDA = not determinable
Description: as §1

[7] = Circular dichroism secondary structure (Dichroweb), peptide only; format: physicochemical; conditions: 20 °C
Description: as §3, §4

[8] = ANTS/DPX leakage assay, POPC; format: biochemical; conditions: P:L = 1:1000, pH 7 phosphate buffer
Description: (§5) 5 mM ANTS and 12.5 mM DPX were entrapped in 0.1 μm diameter extruded vesicles with lipids. Gel filtration chromatography of Sephadex G-100 (GE Healthcare Life Sciences Inc.) was used to remove external free ANTS/DPX from LUVs with entrapped contents. […] Leakage was measured after 3 hr incubation. 10% Triton was used as the positive control to measure the maximum leakage of the vesicle. Fluorescence emission spectra were recorded using excitation wavelength (Ex: 350 nm) and emission wavelength (Em: 510 nm) for ANTS/DPX using Synergy H1 Hybrid Multi-Mode Reader.
as §2

[9] = tested on: methicillin-resistant Staphylococcus aureus (MRSA); format: cell-based; conditions: 75 μM maximum tested; NDA = not determinable
[10] = 3-kDa dextran macromolecule release assay, POPG; format: biochemical; conditions: P:L = 1:1000, pH 7 phosphate buffer
[11] = tested on: Escherichia coli biofilm; experiment: Activity against biofilm, E. coli; format: cell-based; conditions: 67-150 μM peptide, 3 hr treatment
Description: Selected analogues were tested with each (13A). Escherichia coli biofilm, (13B). Staphylococcus aureus biofilm, and (13C) Pseudomonas aeruginosa biofilm.
However, most of the LDKA analogues fail to treat S. aureus and P. aeruginosa biofilms. Only K7H and 7F3 are capable to reduce S. aureus biofilms by ˜50% with 100 μM peptide concentration, and none of the analogues work against P. aeruginosa biofilms (FIGS. 13a-13c).

[12] = Circular dichroism secondary structure (Dichroweb), with POPG; format: physicochemical
Description: as §3, §4

[13] = ANTS/DPX leakage assay, POPG; format: biochemical; conditions: P:L = 1:1000, pH 7 phosphate buffer
Description: as §5, §2

| Substance | Solubility, DMSO [1] | Solubility, DPBS pH 7.1 [1] | Solubility, Ultrapure Water [1] | Minimum Inhibitory Concentration, P. aeruginosa [2] | Pore size [3] | Membrane selectivity (POPC vs POPG vesicles) [4] | Peptide-POPC, Helix ([5]; 20 °C) | Peptide-POPC, Strand ([5]; 20 °C) | Peptide-POPC, Helix ([5]; 45 °C) | Peptide-POPC, Strand ([5]; 45 °C) | Peptide-POPC, Helix ([5]; 70 °C) | Peptide-POPC, Strand ([5]; 70 °C) | Peptide-POPC, Helix ([5]; 95 °C) | Peptide-POPC, Strand ([5]; 95 °C) | Minimum Inhibitory Concentration, S. aureus [6] | Peptide-only, Strand [7] | ANTS/DPX release, POPC [8] | Minimum Inhibitory Concentration, MRSA [9] | 3-kDa Dextran release, POPG [10] | Elimination of E. coli biofilm [11] | other results |
| --- | --- | --- | --- | --- | --- | --- | --- | --- | --- | --- | --- | --- | --- | --- | --- | --- | --- | --- | --- | --- | --- |
| H-GLADAAKLLLKAAGW-NH2 [Peptide 11D12] | 20 mg/mL | 10 mg/mL | 10 mg/mL | NDA | Large | PG > PC | 38% | 12% | 39% | 10% | 39% | 9% | 33% | 12% | NDA | 8% | 8% | NDA | 58% | ~50% | Peptide-POPG, Helix ([12]; 20 °C): 96%; Peptide-POPG, Strand ([12]; 20 °C): 0%; Peptide-POPG, Helix ([12]; 45 °C): 92%; Peptide-POPG, Strand ([12]; 45 °C): 0%; Peptide-POPG, Helix ([12]; 70 °C): 90%; Peptide-POPG, Strand ([12]; 70 °C): 0%; Peptide-POPG, Helix ([12]; 95 °C): 77%; Peptide-POPG, Strand ([12]; 95 °C): 1%; ANTS/DPX release, POPG [13]: 101% |
| H-GLLDAAKLLAKAAGW-NH2 [Peptide 24F1] | 15 mg/mL | 5 mg/mL | 10 mg/mL | 66 µM | Large | PG > PC | 32% | 16% | 32% | 16% | 27% | 17% | 24% | 22% | NDA | 14% | 15% | NDA | 69% | ~50% | Peptide-POPG, Helix ([12]; 20 °C): 91%; Peptide-POPG, Strand ([12]; 20 °C): 0%; Peptide-POPG, Helix ([12]; 45 °C): 88%; Peptide-POPG, Strand ([12]; 45 °C): 1%; Peptide-POPG, Helix ([12]; 70 °C): 77%; Peptide-POPG, Strand ([12]; 70 °C): 1%; Peptide-POPG, Helix ([12]; 95 °C): 66%; Peptide-POPG, Strand ([12]; 95 °C): 2%; ANTS/DPX release, POPG [13]: 100% |
| H-GLLDLPKALAKALGW-NH2 [Peptide 7G6] | 15 mg/mL | 15 mg/mL | 10 mg/mL | NDA | Small | PG > PC | 49% | 10% | 56% | 6% | 47% | 10% | 30% | 20% | NDA | 10% | 48% | NDA | -1% | ~50% | Peptide-POPG, Helix ([12]; 20 °C): 86%; Peptide-POPG, Strand ([12]; 20 °C): 2%; Peptide-POPG, Helix ([12]; 45 °C): 87%; Peptide-POPG, Strand ([12]; 45 °C): 2%; Peptide-POPG, Helix ([12]; 70 °C): 82%; Peptide-POPG, Strand ([12]; 70 °C): 3%; Peptide-POPG, Helix ([12]; 95 °C): 75%; Peptide-POPG, Strand ([12]; 95 °C): 3%; ANTS/DPX release, POPG [13]: 105% |
